What was measured:
[1] = biological target: Caenorhabditis elegans slo-1a (Caenorhabditis elegans, UniProt Q95V25); experiment: Agonistic activity at C. elegans Slo-1a, membrane potential (FLIPR) in transfected CHO K1 cells; conditions: EC50 agonistic activity at C. elegans Slo-1a, membrane potential dye, 70 mM KCl
[2] = biological target: T1, human Maxi K channel (BK channel), KCNMA1 (KCa1.1) and beta1 (KCNMB1) subunits (Homo sapiens, UniProt Q12791); experiment: Agonistic activity at the human Maxi K channel (BK channel), membrane potential (FLIPR) in transfected CHO K1 cells; type: cell-based; conditions: membrane potential dye, 70 mM KCl
T1 construct: expressed in transfected cells; host or cells: CHO K1
T1 sequence (Q12791 1-1178 isoform Q12791-5): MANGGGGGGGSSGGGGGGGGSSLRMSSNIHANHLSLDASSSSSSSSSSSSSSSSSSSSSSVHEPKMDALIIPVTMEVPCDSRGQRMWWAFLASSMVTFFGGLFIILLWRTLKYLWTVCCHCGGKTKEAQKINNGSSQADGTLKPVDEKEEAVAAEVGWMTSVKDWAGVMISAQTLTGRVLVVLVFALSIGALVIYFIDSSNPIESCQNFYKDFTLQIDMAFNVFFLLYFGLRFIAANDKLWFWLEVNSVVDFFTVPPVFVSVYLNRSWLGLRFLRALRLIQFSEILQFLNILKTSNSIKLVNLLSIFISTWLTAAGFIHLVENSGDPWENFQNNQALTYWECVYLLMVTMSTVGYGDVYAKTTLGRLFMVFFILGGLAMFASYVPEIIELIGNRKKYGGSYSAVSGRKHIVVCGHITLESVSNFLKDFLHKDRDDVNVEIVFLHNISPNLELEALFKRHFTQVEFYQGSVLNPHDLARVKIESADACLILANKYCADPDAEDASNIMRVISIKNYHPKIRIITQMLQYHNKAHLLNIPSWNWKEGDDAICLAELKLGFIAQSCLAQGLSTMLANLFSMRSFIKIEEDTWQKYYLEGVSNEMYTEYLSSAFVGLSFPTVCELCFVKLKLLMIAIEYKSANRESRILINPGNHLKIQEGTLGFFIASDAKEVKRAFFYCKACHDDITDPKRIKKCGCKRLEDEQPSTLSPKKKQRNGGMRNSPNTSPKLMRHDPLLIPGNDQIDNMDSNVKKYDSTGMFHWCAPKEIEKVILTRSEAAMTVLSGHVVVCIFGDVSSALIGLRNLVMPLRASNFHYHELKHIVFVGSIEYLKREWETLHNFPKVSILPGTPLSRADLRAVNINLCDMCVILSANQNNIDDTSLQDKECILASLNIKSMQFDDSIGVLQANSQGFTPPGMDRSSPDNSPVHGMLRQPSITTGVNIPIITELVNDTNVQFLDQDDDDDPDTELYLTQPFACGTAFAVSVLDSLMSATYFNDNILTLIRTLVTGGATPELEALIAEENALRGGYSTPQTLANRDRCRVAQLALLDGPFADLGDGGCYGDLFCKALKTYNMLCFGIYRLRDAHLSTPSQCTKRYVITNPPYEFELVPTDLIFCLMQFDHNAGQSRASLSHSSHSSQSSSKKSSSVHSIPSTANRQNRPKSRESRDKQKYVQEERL
T1 sequence (Q16558 whole entry partner): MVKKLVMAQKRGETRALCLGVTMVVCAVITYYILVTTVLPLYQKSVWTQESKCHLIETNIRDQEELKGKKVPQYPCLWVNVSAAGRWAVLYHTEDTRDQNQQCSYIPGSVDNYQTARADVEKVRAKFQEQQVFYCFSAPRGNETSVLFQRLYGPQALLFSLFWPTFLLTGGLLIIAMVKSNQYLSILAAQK
Description: A CHO K1 cell line was stably transfected with the KCNMA1 (KCa1.1, U11058) and beta1 (KCNMB1) subunits of the human Maxi K channel (Ponte et al, Molecular Pharmacology 2012, 81(4), 567-577).
The complete measurement takes 150 s.

[3] = tested on: Oesophagostumum dentatum L3; experiment: In vitro assay Oesophagostumum dentatum larval stage 3, minimum effective concentration; type: cell-based; conditions: 20 larvae per well, microscopic examination; read-out: MEC (minimum effective concentration) against Oesophagostumum dentatum L3
Description: (§1) […] galli (intestinal roundworm of chicken), larval stage 3 (“L3”); and Oesophagostumum dentatum (nodular worm of swine), larval stages 3 and 4 (respectively “L3” and “L4”) where suspended in a nutrient medium and distributed to 96 well plates with 20 larvae per well. The wells were spiked DMSO solutions of the compounds with declining concentration.

Ascaridia galli L3 = experiment: In vitro assay Ascaridia galli larval stage 3, minimum effective concentration; type: cell-based; conditions: 20 larvae per well, microscopic examination, read-out: MEC (minimum effective concentration) against Ascaridia galli L3
Description: as §1

[4] = tested on: Oesophagostumum dentatum L4; experiment: In vitro assay Oesophagostumum dentatum larval stage 4, minimum effective concentration; type: cell-based; conditions: 20 larvae per well, microscopic examination; read-out: MEC (minimum effective concentration) against Oesophagostumum dentatum L4
Description: as §1

Caenorhabditis elegans slo-1a, sequence (Q95V25 whole entry): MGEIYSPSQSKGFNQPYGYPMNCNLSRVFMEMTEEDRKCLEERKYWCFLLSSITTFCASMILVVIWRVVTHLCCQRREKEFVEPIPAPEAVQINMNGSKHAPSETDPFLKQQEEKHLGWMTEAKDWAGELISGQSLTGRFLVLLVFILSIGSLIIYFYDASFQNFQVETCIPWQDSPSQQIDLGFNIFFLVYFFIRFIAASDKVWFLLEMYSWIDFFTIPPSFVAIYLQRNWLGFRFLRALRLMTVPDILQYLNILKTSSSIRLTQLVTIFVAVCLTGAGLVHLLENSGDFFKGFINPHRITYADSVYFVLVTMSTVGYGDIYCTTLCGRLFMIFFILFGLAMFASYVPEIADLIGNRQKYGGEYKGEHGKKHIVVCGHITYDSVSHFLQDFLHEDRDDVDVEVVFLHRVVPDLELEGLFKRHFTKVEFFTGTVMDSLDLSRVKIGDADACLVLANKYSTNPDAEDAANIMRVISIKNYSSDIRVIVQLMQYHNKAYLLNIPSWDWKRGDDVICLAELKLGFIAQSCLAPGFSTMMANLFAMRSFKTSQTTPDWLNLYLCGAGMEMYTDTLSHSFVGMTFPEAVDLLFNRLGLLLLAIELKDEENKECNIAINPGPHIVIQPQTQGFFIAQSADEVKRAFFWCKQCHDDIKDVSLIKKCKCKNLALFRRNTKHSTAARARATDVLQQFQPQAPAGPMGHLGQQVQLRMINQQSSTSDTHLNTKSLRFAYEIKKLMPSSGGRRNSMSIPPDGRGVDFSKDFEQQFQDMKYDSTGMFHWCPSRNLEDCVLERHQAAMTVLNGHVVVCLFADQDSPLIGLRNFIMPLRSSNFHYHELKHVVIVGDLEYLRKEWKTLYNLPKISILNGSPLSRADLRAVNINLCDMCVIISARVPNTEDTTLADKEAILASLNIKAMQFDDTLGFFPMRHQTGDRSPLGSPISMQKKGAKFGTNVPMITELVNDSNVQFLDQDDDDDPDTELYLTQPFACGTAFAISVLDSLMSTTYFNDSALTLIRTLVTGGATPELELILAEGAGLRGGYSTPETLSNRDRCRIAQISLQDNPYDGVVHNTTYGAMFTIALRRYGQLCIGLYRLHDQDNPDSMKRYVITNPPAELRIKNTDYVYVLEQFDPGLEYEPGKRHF

EC50 [1] | EC50 [2] | SMILES | minimal effective concentration [3] | minimal effective concentration (Ascaridia galli L3) | minimal effective concentration [4]
< 10 µM | > 30 µM | O=C(Nc1cnc2c(-c3cccc(Cl)c3Cl)cccc2c1NCCO)C1CCOc2ccccc21 (centres unmarked) [Compound 90] | ≤ 50 µM | ≤ 50 µM | 
< 1 µM | > 30 µM | CN(C)c1c(NC(=O)C2CCOc3ccccc32)cnc2c(-c3cccc(Cl)c3Cl)cccc12 (centres unmarked) [Compound 12] |  | ≤ 50 µM | 
 | > 30 µM | CC(C)Oc1c(NC(=O)C2CCOc3ccccc32)cnc2c(-c3cccc(Cl)c3Cl)cccc12 (centres unmarked) [Compound 32] | ≤ 50 µM | ≤ 50 µM | 
< 1 µM | 10 to 30 µM | O=C(Nc1cnc2c(-c3cccc(Cl)c3Cl)cccc2c1N1CCC(O)C1)C1CCOc2ccccc21 (centres unmarked) [Compound 37] |  | ≤ 50 µM | ≤ 50 µM
< 1 µM | > 30 µM | CN(C)c1c(NC(=O)C2CCCc3ccccc32)cnc2c(-c3cc(Cl)cc(Cl)c3)c(F)ccc12 (centres unmarked) [Compound 115] |  | ≤ 50 µM | 
< 1 µM | > 30 µM | CN(C)c1c(NC(=O)C2CCOc3ccccc32)cnc2c(-c3cc(Cl)cc(Cl)c3)cccc12 (centres unmarked) [Compound 67] |  | ≤ 50 µM | 
< 1 µM | > 30 µM | CCOc1c(NC(=O)[C@H]2CCCc3ccccc32)cnc2c(-c3cc(Cl)cc(Cl)c3)cccc12 [Compound 154] |  | ≤ 50 µM | 
< 1 µM | > 30 µM | COc1c(NC(=O)C2CCOc3ccccc32)cnc2c(-c3cccc(Cl)c3Cl)cccc12 (centres unmarked) [Compound 15] |  | ≤ 50 µM | 
< 10 µM | > 30 µM | CN(C)c1c(NC(=O)C2CCOc3ccccc32)cnc2c(-c3cc(F)c(F)c(F)c3)cccc12 (centres unmarked) [Compound 39] |  | ≤ 50 µM | 
< 1 µM | > 30 µM | COc1c(NC(=O)C2CCCc3ccccc32)cnc2c(-c3cc(Cl)cc(Cl)c3)c(F)ccc12 (centres unmarked) [Compound 113] |  | ≤ 50 µM | 
< 1 µM | > 30 µM | CN(C)c1c(NC(=O)[C@H]2CCc3ccccc32)cnc2c(-c3cc(Cl)cc(Cl)c3)c(Cl)ccc12 [Compound 180] |  | ≤ 50 µM | 
< 1 µM | > 30 µM | CCc1c(NC(=O)[C@H]2CCCc3ccccc32)cnc2c(-c3cc(Cl)cc(Cl)c3)cccc12 [Compound 197] |  | ≤ 50 µM | 
 | > 30 µM | O=C(Nc1cnc2c(-c3cccc(Cl)c3Cl)cccc2c1N1CCCC1)C1CCc2ccccc21 (centres unmarked) [Compound 18] |  | ≤ 50 µM | ≤ 50 µM
< 10 µM | > 30 µM | Cc1c(NC(=O)C2CCOc3ccccc32)cnc2c(-c3cc(Cl)cc(Cl)c3)cccc12 (centres unmarked) [Compound 194] |  | ≤ 50 µM | 
 | > 30 µM | CC(C)Oc1c(NC(=O)C2CCCc3ccccc32)cnc2c(-c3cccc(Cl)c3Cl)c(F)ccc12 (centres unmarked) [Compound 122] | ≤ 50 µM | ≤ 50 µM | 
< 10 µM | > 30 µM | CN(C)c1c(NC(=O)C2CCOc3ccccc32)cnc2c(-c3cc(F)cc(F)c3)cccc12 (centres unmarked) [Compound 38] |  | ≤ 50 µM | 
 | > 30 µM | O=C(Nc1cnc2c(-c3cccc(Cl)c3Cl)cccc2c1O)C1CCOc2ccccc21 (centres unmarked) [Compound 112] | ≤ 50 µM |  | 
< 1 µM | > 30 µM | CCOc1c(NC(=O)C2CCCc3ccccc32)cnc2c(-c3cc(Cl)cc(Cl)c3)cccc12 (centres unmarked) [Compound 75] | ≤ 50 µM | ≤ 50 µM | 
< 10 µM | > 30 µM | CCc1c(NC(=O)c2cccc3ccccc23)cnc2c(-c3cc(Cl)cc(Cl)c3)cccc12 [Compound 199] |  | ≤ 50 µM | 
< 1 µM | > 30 µM | CCc1c(NC(=O)C2CCOc3ccccc32)cnc2c(-c3cc(Cl)cc(Cl)c3)cccc12 (centres unmarked) [Compound 195] |  | ≤ 50 µM | 
< 10 µM | > 30 µM | O=C(Nc1cnc2c(-c3cc(Cl)cc(Cl)c3)c(F)ccc2c1N1CCOCC1)C1CCc2ccccc21 (centres unmarked) [Compound 136] |  | ≤ 50 µM | 
< 1 µM | > 30 µM | Cc1ccc2c(N(C)C)c(NC(=O)[C@H]3CCc4ccccc43)cnc2c1-c1cc(Cl)cc(Cl)c1 [Compound 182] |  | ≤ 50 µM | 
< 1 µM | > 30 µM | COc1c(NC(=O)C2CCCc3ccccc32)cnc2c(-c3cc(Cl)cc(Cl)c3)cccc12 (centres unmarked) [Compound 69] |  | ≤ 50 µM | 

EC50 [1] | EC50 [2] | SMILES | minimal effective concentration [3] | minimal effective concentration (Ascaridia galli L3) | minimal effective concentration [4]
< 10 µM | > 30 µM | Cc1c(NC(=O)C2CCCc3ccccc32)cnc2c(-c3cc(Cl)cc(Cl)c3)cccc12 (centres unmarked) [Compound 192] |  |  | ≤ 50 µM
 | > 30 µM | CC(C)Oc1c(NC(=O)c2cccc3ccccc23)cnc2c(-c3cc(Cl)cc(Cl)c3)cccc12 [Compound 81] | ≤ 50 µM |  | 
< 10 µM | > 30 µM | CN(CCO)c1c(NC(=O)C2CCOc3ccccc32)cnc2c(-c3cccc(Cl)c3Cl)cccc12 (centres unmarked) [Compound 92] |  |  | ≤ 50 µM
< 1 µM | > 30 µM | COc1c(NC(=O)C2CCc3ccccc32)cnc2c(-c3cccc(Cl)c3Cl)cccc12 (centres unmarked) [Compound 16] |  | ≤ 50 µM | 
< 1 µM | > 30 µM | C=C(C)c1c(NC(=O)C2CCCc3ccccc32)cnc2c(-c3cccc(Cl)c3Cl)cccc12 (centres unmarked) [Compound 202] | ≤ 50 µM |  | 
< 1 µM | > 30 µM | CCc1c(NC(=O)C2CCCc3ccccc32)cnc2c(-c3cc(Cl)cc(Cl)c3)cccc12 (centres unmarked) [Compound 191] | ≤ 50 µM |  | 
< 10 µM | > 30 µM | Cc1ccc(CC(=O)Nc2cnc3c(-c4cccc(Cl)c4Cl)cccc3c2N(C)C)cc1 [Compound 26] | ≤ 50 µM |  | 
< 10 µM | > 30 µM | CN(C)c1c(NC(=O)Cc2ccccc2)cnc2c(-c3cccc(Cl)c3Cl)cccc12 [Compound 1] | ≤ 50 µM | ≤ 50 µM | 
< 10 µM | > 30 µM | CN(C)c1c(NC(=O)Cc2ccc(Cl)cc2)cnc2c(-c3cccc(Cl)c3Cl)cccc12 [Compound 25] | ≤ 50 µM |  | 
< 1 µM | > 30 µM | COc1c(NC(=O)C2CCCc3ccccc32)cnc2c(-c3cccc(Cl)c3Cl)cccc12 (centres unmarked) [Compound 14] |  | ≤ 50 µM | 
< 10 µM | > 30 µM | Nc1c(NC(=O)C2CCOc3ccccc32)cnc2c(-c3cccc(Cl)c3Cl)cccc12 (centres unmarked) [Compound 84] |  | ≤ 50 µM | 
< 1 µM | > 30 µM | COc1c(NC(=O)C2CCOc3ccccc32)cnc2c(-c3cc(Cl)cc(Cl)c3)c(F)ccc12 (centres unmarked) [Compound 123] |  | ≤ 50 µM | 
 | > 30 µM | CC(C)Oc1c(NC(=O)C2CCc3ccccc32)cnc2c(-c3cccc(Cl)c3Cl)c(F)ccc12 (centres unmarked) [Compound 142] | ≤ 50 µM | ≤ 50 µM | 
< 10 µM | > 30 µM | Cc1cccc(CC(=O)Nc2cnc3c(-c4cccc(Cl)c4Cl)cccc3c2N(C)C)c1 [Compound 35] | ≤ 50 µM |  | 
< 1 µM | 10 to 30 µM | CN(CCO)c1c(NC(=O)C2CCCc3ccccc32)cnc2c(-c3cccc(Cl)c3Cl)cccc12 (centres unmarked) [Compound 102] |  | ≤ 50 µM | 
< 10 µM | > 30 µM | COc1c(NC(=O)C2CCOc3ccccc32)cnc2c(-c3cccc(Cl)c3Cl)c(C)ccc12 (centres unmarked) [Compound 164] |  | ≤ 50 µM | 
< 1 µM | > 30 µM | C=C(C)c1c(NC(=O)C2CCc3ccccc32)cnc2c(-c3cccc(Cl)c3Cl)cccc12 (centres unmarked) [Compound 201] | ≤ 50 µM | ≤ 50 µM | 
< 10 µM | > 30 µM | CC(C(=O)Nc1cnc2c(-c3cccc(Cl)c3Cl)cccc2c1N1CCOCC1)c1ccccc1 (centres unmarked) [Compound 21] |  | ≤ 50 µM | 
 | > 30 µM | CCOc1c(NC(=O)C2CCCc3ccccc32)cnc2c(-c3cc(Cl)cc(Cl)c3)c(F)ccc12 (centres unmarked) [Compound 114] | ≤ 50 µM |  | 
< 10 µM | > 30 µM | CN(C)c1cccc(CC(=O)Nc2cnc3c(-c4cccc(Cl)c4Cl)cccc3c2N(C)C)c1 [Compound 49] |  |  | ≤ 50 µM
< 1 µM | > 30 µM | COc1c(NC(=O)[C@H]2CCCc3ccccc32)cnc2c(-c3cc(Cl)cc(Cl)c3)cccc12 [Compound 155] |  | ≤ 50 µM | 
< 1 µM | > 30 µM | CCOc1c(NC(=O)C2CCc3ccccc32)cnc2c(-c3cccc(Cl)c3Cl)cccc12 (centres unmarked) [Compound 57, N-(8-(2,3-dichlorophenyl)-4-ethoxyquinolin-3-yl)-2,3-dihydro-1H-indene-1-carboxamide] | ≤ 50 µM |  | 

Reference: US12509449B2, “Anthelmintic compounds comprising a quinoline structure” (Intervet Inc., priority 2019, dated 2025)
